Where a SMILES comes first, the peptide text is derived from it.
Tests used:
Settings in all cases: 50:1 E:T
[1] = system: WT1+ allo APC with restricting HLA allele loaded with WT1 peptide; experiment: Cr51 release assay, cytotoxic CTL response vs peptide loaded allogeneic APC sharing restricting HLA allele (HLA restriction)
[2] = system: WT1- allo APC with restricting HLA allele; experiment: Cr51 release assay, cytotoxic CTL response vs unloaded allogeneic APC sharing restricting HLA allele; assay type: cell-based, human
[3] = system: WT1- autologous APC; experiment: Cr51 release assay, cytotoxic CTL response vs unmodified autologous APC; assay type: cell-based, human
[4] = system: WT1 peptide loaded autologous APC; experiment: Cr51 release assay, cytotoxic CTL response vs peptide loaded autologous APC; assay type: cell-based, human
[5] = system: WT1+ leukemia; experiment: Cr51 release assay, cytotoxic CTL response vs WT1+ leukemia expressing restricting HLA allele; assay type: cell-based, human
Source text: (§1) Twenty-four primary leukemic cells and 1 leukemic cell line were characterized for their expression of WT1 by intracellular FACS staining using murine anti-human WT1 monoclonal antibodies (Neomarkers, Fremont, Calif.) as previously described (32,38) The WT1+ leukemias included blast cells from 11 primary AMLs, 3 primary ALLs and 1B-cell precursor ALL cell line. Ten WT1-leukemias, were used as controls, and included 3 B-cell precursor ALLs and 7 AMLs.
PHA blasts were not available from every patient that provided leukemia blasts for this study.

[6] = system: WT1- leukemia; experiment: Cr51 release assay, cytotoxic CTL response vs WT1- leukemia; assay type: cell-based, human
Source text: as §1

## CC(C)C[C@H](NC(=O)[C@H](CC(C)C)NC(=O)[C@H](CC(C)C)NC(=O)[C@H](C)NC(=O)[C@H](CCC(N)=O)NC(=O)[C@H](CO)NC(=O)CNC(=O)[C@@H](NC(=O)[C@@H](N)CS)[C@@H](C)O)C(=O)O [SEQ ID NO: 167] (H-CTGSQALLL-OH; N-terminus and C-terminus assumed)
[1]; HLA allele A0101
  Cytotoxic CTL response, % vs WT1+ allo APC with restricting HLA allele loaded with WT1 peptide: 26%
[2]; HLA allele A0101
  Cytotoxic CTL response, % vs WT1- allo APC with restricting HLA allele: 0%
[3]; HLA allele A0101
  Cytotoxic CTL response, % vs WT1- autologous APC: 0%
[4]; HLA allele A0101
  Cytotoxic CTL response, % vs WT1 peptide loaded autologous APC: 21%
[5]; HLA allele A0101
  Cytotoxic CTL response, % vs WT1+ leukemia: 33%
[6]; HLA allele A0101
  Cytotoxic CTL response, % vs WT1- leukemia: 3%

## C[C@H](NC(=O)[C@H](CCC(N)=O)NC(=O)[C@H](CO)NC(=O)CNC(=O)[C@@H](NC(=O)[C@H](CS)NC(=O)[C@H](CO)NC(=O)[C@H](CC(=O)O)NC(=O)[C@@H](N)[C@@H](C)O)[C@@H](C)O)C(=O)O [SEQ ID NO: 168] (H-TDSCTGSQA-OH; N-terminus and C-terminus assumed)
[1]; HLA allele B3802
  Cytotoxic CTL response, % vs WT1+ allo APC with restricting HLA allele loaded with WT1 peptide: 53%
[1]; HLA allele B4402
  Cytotoxic CTL response, % vs WT1+ allo APC with restricting HLA allele loaded with WT1 peptide: 88%
[2]; HLA allele B3802
  Cytotoxic CTL response, % vs WT1- allo APC with restricting HLA allele: 1%
[2]; HLA allele B4402
  Cytotoxic CTL response, % vs WT1- allo APC with restricting HLA allele: 0%
[3]; HLA allele B3802
  Cytotoxic CTL response, % vs WT1- autologous APC: 0%
[3]; HLA allele B4402
  Cytotoxic CTL response, % vs WT1- autologous APC: 1%
[4]; HLA allele B3802
  Cytotoxic CTL response, % vs WT1 peptide loaded autologous APC: 88%
[4]; HLA allele B4402
  Cytotoxic CTL response, % vs WT1 peptide loaded autologous APC: 36%
[5]; HLA allele B4402
  Cytotoxic CTL response, % vs WT1+ leukemia: 56%
[6]; HLA allele B4402
  Cytotoxic CTL response, % vs WT1- leukemia: 1%

## CSCC[C@H](NC(=O)[C@H](CCC(N)=O)NC(=O)[C@H](CC(N)=O)NC(=O)[C@@H](N)Cc1c[nH]c2ccccc12)C(=O)N[C@@H](CC(N)=O)C(=O)N[C@@H](CC(C)C)C(=O)NCC(=O)N[C@@H](C)C(=O)N[C@H](C(=O)O)[C@@H](C)O [SEQ ID NO: 171] (H-WNQMNLGAT-OH; N-terminus and C-terminus assumed)
[1]; HLA allele A0101
  Cytotoxic CTL response, % vs WT1+ allo APC with restricting HLA allele loaded with WT1 peptide: 19%
[1]; HLA allele A0201
  Cytotoxic CTL response, % vs WT1+ allo APC with restricting HLA allele loaded with WT1 peptide: 21%
[1]; HLA allele B3508
  Cytotoxic CTL response, % vs WT1+ allo APC with restricting HLA allele loaded with WT1 peptide: 21%
[1]; HLA allele C1701
  Cytotoxic CTL response, % vs WT1+ allo APC with restricting HLA allele loaded with WT1 peptide: 7%
[2]; HLA allele A0101
  Cytotoxic CTL response, % vs WT1- allo APC with restricting HLA allele: 3%
[2]; HLA allele A0201
  Cytotoxic CTL response, % vs WT1- allo APC with restricting HLA allele: 0%
[2]; HLA allele B3508
  Cytotoxic CTL response, % vs WT1- allo APC with restricting HLA allele: 2%
[2]; HLA allele C1701
  Cytotoxic CTL response, % vs WT1- allo APC with restricting HLA allele: 0%
[3]; HLA allele A0101
  Cytotoxic CTL response, % vs WT1- autologous APC: 0%
[3]; HLA allele A0201
  Cytotoxic CTL response, % vs WT1- autologous APC: 0%
[3]; HLA allele B3508
  Cytotoxic CTL response, % vs WT1- autologous APC: 0%
[3]; HLA allele C1701
  Cytotoxic CTL response, % vs WT1- autologous APC: 0%
[4]; HLA allele A0101
  Cytotoxic CTL response, % vs WT1 peptide loaded autologous APC: 26%
[4]; HLA allele A0201
  Cytotoxic CTL response, % vs WT1 peptide loaded autologous APC: 18%
[4]; HLA allele B3508
  Cytotoxic CTL response, % vs WT1 peptide loaded autologous APC: 18%
[4]; HLA allele C1701
  Cytotoxic CTL response, % vs WT1 peptide loaded autologous APC: 10%
[5]; HLA allele A0201
  Cytotoxic CTL response, % vs WT1+ leukemia: 19%
[5]; HLA allele B3508
  Cytotoxic CTL response, % vs WT1+ leukemia: 19%
[5]; HLA allele C1701
  Cytotoxic CTL response, % vs WT1+ leukemia: 16%
[6]; HLA allele A0201
  Cytotoxic CTL response, % vs WT1- leukemia: 1%
[6]; HLA allele B3508
  Cytotoxic CTL response, % vs WT1- leukemia: 4%
[6]; HLA allele C1701
  Cytotoxic CTL response, % vs WT1- leukemia: 1%

## CSCC[C@H](NC(=O)[C@H](CCC(N)=O)NC(=O)[C@@H](N)CC(N)=O)C(=O)N[C@@H](CC(N)=O)C(=O)N[C@@H](CC(C)C)C(=O)NCC(=O)N[C@@H](C)C(=O)N[C@H](C(=O)N[C@@H](CC(C)C)C(=O)O)[C@@H](C)O [SEQ ID NO: 172] (H-NQMNLGATL-OH; N-terminus and C-terminus assumed)
[1]; HLA allele A2402
  Cytotoxic CTL response, % vs WT1+ allo APC with restricting HLA allele loaded with WT1 peptide: 2%
[2]; HLA allele A2402
  Cytotoxic CTL response, % vs WT1- allo APC with restricting HLA allele: 0%
[3]; HLA allele A2402
  Cytotoxic CTL response, % vs WT1- autologous APC: 4%
[4]; HLA allele A2402
  Cytotoxic CTL response, % vs WT1 peptide loaded autologous APC: 9%
[5]; HLA allele A2402
  Cytotoxic CTL response, % vs WT1+ leukemia: 17%
[6]; HLA allele A2402
  Cytotoxic CTL response, % vs WT1- leukemia: 1%

## CSCC[C@H](NC(=O)[C@H](CCC(N)=O)NC(=O)[C@H](CC(N)=O)NC(=O)[C@@H](N)Cc1c[nH]c2ccccc12)C(=O)N[C@@H](CC(N)=O)C(=O)N[C@@H](CC(C)C)C(=O)NCC(=O)N[C@@H](C)C(=O)N[C@H](C(=O)N[C@@H](CC(C)C)C(=O)N[C@@H](CCCCN)C(=O)O)[C@@H](C)O [SEQ ID NO: 173] (H-WNQMNLGATLK-OH; N-terminus and C-terminus assumed)
[1]; HLA allele DRB11104
  Cytotoxic CTL response, % vs WT1+ allo APC with restricting HLA allele loaded with WT1 peptide: 1%
[2]; HLA allele DRB11104
  Cytotoxic CTL response, % vs WT1- allo APC with restricting HLA allele: 2%
[3]; HLA allele DRB11104
  Cytotoxic CTL response, % vs WT1- autologous APC: 0%
[4]; HLA allele DRB11104
  Cytotoxic CTL response, % vs WT1 peptide loaded autologous APC: 8%
[5]; HLA allele DRB11104
  Cytotoxic CTL response, % vs WT1+ leukemia: 0%
[6]; HLA allele DRB11104
  Cytotoxic CTL response, % vs WT1- leukemia: 0%

## CC(C)C[C@H](NC(=O)[C@@H](NC(=O)[C@H](C)NC(=O)CNC(=O)[C@H](CC(C)C)NC(=O)[C@@H](N)CC(N)=O)[C@@H](C)O)C(=O)N[C@@H](CCCCN)C(=O)NCC(=O)N[C@H](C(=O)O)C(C)C [SEQ ID NO: 175] (H-NLGATLKGV-OH; N-terminus and C-terminus assumed)
[1]; HLA allele A0101
  Cytotoxic CTL response, % vs WT1+ allo APC with restricting HLA allele loaded with WT1 peptide: 17%
[1]; HLA allele A0201
  Cytotoxic CTL response, % vs WT1+ allo APC with restricting HLA allele loaded with WT1 peptide: 14%
[2]; HLA allele A0101
  Cytotoxic CTL response, % vs WT1- allo APC with restricting HLA allele: 1%
[2]; HLA allele A0201
  Cytotoxic CTL response, % vs WT1- allo APC with restricting HLA allele: 1%
[3]; HLA allele A0101
  Cytotoxic CTL response, % vs WT1- autologous APC: 2%
[3]; HLA allele A0201
  Cytotoxic CTL response, % vs WT1- autologous APC: 1%
[4]; HLA allele A0101
  Cytotoxic CTL response, % vs WT1 peptide loaded autologous APC: 19%
[4]; HLA allele A0201
  Cytotoxic CTL response, % vs WT1 peptide loaded autologous APC: 18%
[5]; HLA allele A0201
  Cytotoxic CTL response, % vs WT1+ leukemia: 19%
[6]; HLA allele A0201
  Cytotoxic CTL response, % vs WT1- leukemia: 2%

Source: patent US10815274B2, “Immunogenic WT-1 peptides and methods of use thereof” (Memorial Sloan Kettering Cancer Center, priority 2012, dated 2020)
